Article PMC6009911, “Inhibition of human cytochromes P450 2A6 and 2A13 by flavonoids, acetylenic thiophenes and sesquiterpene lactones from Pluchea indica and Vernonia cinerea” (Journal of Enzyme Inhibition and Medicinal Chemistry, 2017)
Where two headings read alike, the source gives them in different places. Marks after values point to notes of the source that are not given here.

What was measured:
CYP2A6 [1] = biological target: T1, CYP2A6 (Homo sapiens, UniProt P11509); parameters: made in house; settings: ref Prasopthum et al., 2015, cited from earlier work; for Ki: coumarin 0–40 µM
T1 sequence (P11509 1-494): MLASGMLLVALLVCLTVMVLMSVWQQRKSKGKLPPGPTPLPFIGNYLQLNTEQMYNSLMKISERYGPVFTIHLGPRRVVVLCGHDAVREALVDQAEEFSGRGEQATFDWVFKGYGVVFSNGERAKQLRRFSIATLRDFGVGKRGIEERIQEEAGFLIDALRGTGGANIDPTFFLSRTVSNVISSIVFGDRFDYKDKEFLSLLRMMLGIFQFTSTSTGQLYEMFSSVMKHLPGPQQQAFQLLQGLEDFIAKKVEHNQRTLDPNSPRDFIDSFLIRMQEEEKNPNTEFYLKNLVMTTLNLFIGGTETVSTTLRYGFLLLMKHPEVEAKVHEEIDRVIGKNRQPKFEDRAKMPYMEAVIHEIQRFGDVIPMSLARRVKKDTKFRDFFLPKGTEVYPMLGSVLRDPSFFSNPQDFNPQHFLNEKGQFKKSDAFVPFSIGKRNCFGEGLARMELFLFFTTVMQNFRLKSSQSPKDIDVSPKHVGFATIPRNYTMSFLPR

CYP2A13 [2] = biological target: T2, CYP2A13 (Homo sapiens, UniProt Q16696); test: Inhibition of CYP2A13-mediated coumarin 7-hydroxylation, enzymatic reconstitution assay; format: biochemical; settings: for Ki: coumarin 0–40 µM
T2 construct: made in house
T2 sequence (Q16696 1-494): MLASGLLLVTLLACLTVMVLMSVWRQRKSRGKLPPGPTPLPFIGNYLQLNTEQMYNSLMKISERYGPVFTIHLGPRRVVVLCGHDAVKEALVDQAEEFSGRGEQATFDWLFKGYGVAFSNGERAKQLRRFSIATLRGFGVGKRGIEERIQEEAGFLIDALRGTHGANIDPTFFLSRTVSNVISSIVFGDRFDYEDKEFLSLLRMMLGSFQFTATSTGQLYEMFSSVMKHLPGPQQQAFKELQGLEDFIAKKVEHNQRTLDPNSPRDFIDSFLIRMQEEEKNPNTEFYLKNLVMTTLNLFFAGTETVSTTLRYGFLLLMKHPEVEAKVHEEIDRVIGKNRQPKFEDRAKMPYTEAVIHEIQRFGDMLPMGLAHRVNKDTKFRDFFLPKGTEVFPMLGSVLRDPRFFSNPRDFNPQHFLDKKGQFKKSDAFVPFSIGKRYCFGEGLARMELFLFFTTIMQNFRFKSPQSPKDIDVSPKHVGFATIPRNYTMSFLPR
Protocol: Inhibitory effect of plant extracts, fractions, subfractions and constituents was determined by inhibition assay on CYP2A6- and CYP2A13-mediated coumarin 7-hydroxylation. The recombinant human CYP2A6, CYP2A13 and rat NADPH-dependent cytochrome P450 oxidoreductase (CYPOR) proteins were expressed, purified, according to the methods previously described. […] Rate of 7-hydroxycoumarin product formation was measured on spectrofluorometer (Shimadzu, Kyoto, Japan) at λex = 355 nm, λem = 460 nm. Inhibition effects were determined by incubation with extracts, fractions or purified compounds with coumarin substrate in the reaction mixture and calculated as per cent relative inhibition compared with vehicle control reaction[20] and IC50 values were calculated using GraphPad Prism 5 (GraphPad Software Inc., La Jolla, CA).
(§1) MBI requires NADPH and time to generate reactive intermediate as inhibitor and ultimately inactivates the enzyme. MBI was evaluated by pre-incubation with each test inhibitor in the reaction at different time periods (0, 10, 20 and 30 min) in the presence of NADPH for time-dependent assay, as described. The apparent inactivation constants, KI and Kinact, were obtained from double reciprocal plots of kobs versus inhibitor concentrations by linear regression analysis on GraphPad Prism 5. Methoxsalen was used as a control mechanism-based inhibitor for time- and NADPH-dependent inhibition assays.

CYP2A13 [3] = biological target: T2, CYP2A13; test: Mechanism-based (time- and NADPH-dependent) inactivation of CYP2A13; format: biochemical; settings: for kinact / KI (inactivation): pre-incubation 0-30 min with NADPH; for KI (inactivation): read-out: CYP2A13 KI (inactivation constant)
Protocol: as §1

CYP2A13 [4] = biological target: T2, CYP2A13; test: Effects of trapping agents and dialysis on inactivation of CYP2A13; format: biochemical; settings: CYP2A13 inhibition reaction mixture, probe coumarin; for activity at 10 µM: compound 10 µM; for activity at 20 µM: compound 20 µM
Protocol: as §1
To explore whether inactivation of CYP2As by thiophenes 9–11 and of CYP2A13 by hirsutinolides 5-8 could be reversed, the removal of reversible inhibitory compounds by dialysis and addition of trapping agents (GSH, semicarbazide, catalase or potassium ferricyanide) in the inhibition reaction mixture were performed. […] Similarly, mechanism-based inactivation of both CYP2A6 and CYP2A13 by thiophenes 9–11 could not be reversed (Table 3).

CYP2A6 [5] = biological target: T1, CYP2A6; settings: cited from earlier work
[6] = 10-min pre-incubation in the presence of NADPH, read-out: IC50 CYP2A13 Pre-incubation
[7] = coincubation, coumarin 2 µM, read-out: IC50 CYP2A13 Coincubation
[8] = 10-min pre-incubation in the presence of NADPH, read-out: IC50 CYP2A6 Pre-incubation
[9] = coincubation, coumarin 2 µM, read-out: IC50 CYP2A6 Coincubation
[10] = read-out: Per cent remaining activity, 70 μM K3Fe(CN)6
[11] = read-out: Per cent remaining activity, 2 mM GSH
[12] = read-out: Per cent remaining activity, 5 mM semicarbazide
[13] = read-out: Per cent remaining activity, 2000 U catalase
[14] = read-out: Per cent remaining activity, Dialysis (+) NADPH
[15] = read-out: Per cent remaining activity, Dialysis (−) NADPH
[16] = read-out: Per cent remaining activity, Pre-incubation
[17] = read-out: CYP2A6 KI (inactivation constant), ref Prasopthum et al., 2015
[18] = read-out: inactivation kinetic values (KI) against CYP2A6, literature values

Row | Compound | CYP2A6 Mode of inhibition (CYP2A6 [1]) | CYP2A13 Mode of inhibition (CYP2A13 [2]) | IC50 (CYP2A13 [2]; [6]) [µM] | IC50 (CYP2A13 [2]; [7]) [µM] | Ki (CYP2A13 [2]) [µM] | IC50 (CYP2A6 [1]; [8]) [µM] | IC50 (CYP2A6 [1]; [9]) [µM] | Ki (CYP2A6 [1]) [µM] | kinact (CYP2A13 [3]) [s⁻¹] | KI (inactivation) (CYP2A13 [3]) [µM] | KI (inactivation) (CYP2A6 [5]; [17]) [µM] | CYP2A6 Kinact (CYP2A6 [5]; ref Prasopthum et al., 2015) | also measured
1 | O=c1cc(-c2ccc(O)cc2)oc2cc(O)cc(O)c12 [Apigenin 1, apigenin] | Mixed type^b | Mixed type | 0.04 ± 0.01 | 0.05 ± 0.01 | 0.014 ± 0.002 |  |  |  |  |  |  |  | 
2 | C=C(C)C(=O)OC1CC(C)C2(O)CCC(C)(/C=C3/OC(=O)C(COC(C)=O)=C31)O2 (stereo not drawn) [Hirsutinolide 5, 8α-(2-methylacryloyloxy)-hirsutinolide-13-O-acetate] | Mixed type^b | Mixed type | 4.5 ± 0.18 | 16.4 ± 3.1 | 5.61 ± 0.99 | 8.64 ± 0.37 | 22.3 ± 2.5 | 15.1 ± 2.1 | 0.0005 | 0.92 ± 0.17 | 7.45 ± 0.62 | 0.05 ± 0.01^b | activity at 10 µM (CYP2A13 [4]; [10]): 24.1 ± 0.62%; activity at 10 µM (CYP2A13 [4]; [11]): 28.2 ± 6.54%; activity at 10 µM (CYP2A13 [4]; [12]): 24.4 ± 2.54%; activity at 10 µM (CYP2A13 [4]; [13]): 20.3 ± 6.24%; activity at 10 µM (CYP2A13 [4]; [14]): 18.6 ± 0.94%; activity at 10 µM (CYP2A13 [4]; [15]): 86 ± 6.65%; activity at 10 µM (CYP2A13 [4]; [16]): 29.3 ± 2.53%
3 | C=C(CO)C(=O)OC1CC(C)C2(O)CCC(C)(/C=C3/OC(=O)C(COC(C)=O)=C31)O2 (stereo not drawn) [Hirsutinolide 7, 8α-(4-hydroxymethacryloyloxy)-hirsutinolide-13-O-acetate] | Mixed type^b | Mixed type | 10.5 ± 0.49 | 23.3 ± 1.35 | 12.6 ± 1.26 | 6.8 ± 0.77 | 32.7 ± 2.2 | 20.4 ± 5.4 | 0.001 | 8.67 ± 0.15 | 5.32 ± 0.29 | 0.03 ± 0.01^b | KI, CYP2A13 (in Figure 2) (CYP2A13 [3]; time- and concentration-dependent inactivation): 8.67 ± 0.15; activity at 10 µM (CYP2A13 [4]; [10]): 21.4 ± 2.75%; activity at 10 µM (CYP2A13 [4]; [11]): 18.3 ± 1.54%; activity at 10 µM (CYP2A13 [4]; [12]): 26.6 ± 1.25%; activity at 10 µM (CYP2A13 [4]; [13]): 20.9 ± 5.18%; activity at 10 µM (CYP2A13 [4]; [14]): 21.4 ± 4.45%; activity at 10 µM (CYP2A13 [4]; [15]): 93.3 ± 2.1%; activity at 10 µM (CYP2A13 [4]; [16]): 22.2 ± 1.88%
4 | CC(=O)OCC1=C2/C(=C\C3(C)CCC(O)(O3)C(C)CC2OC(=O)/C(C)=C/CO)OC1=O (stereo not drawn) [Hirsutinolide 8, 8α-(4-hydroxytigloyloxy)-hirsutinolide-13-O-acetate] | Mixed type^b | Mixed type | 15.9 ± 0.67 | 36.1 ± 1.39 | 15.8 ± 2.5 | 13.1 ± 2.4 | 64.5 ± 5.8 | 42.3 ± 8.4 | 0.00167 | 8.62 ± 0.37 | 7.64 ± 1.24 | 0.09 ± 0.01^b | activity at 20 µM (CYP2A13 [4]; [10]): 21.8 ± 1.85%; activity at 20 µM (CYP2A13 [4]; [11]): 25.8 ± 4.2%; activity at 20 µM (CYP2A13 [4]; [12]): 20.7 ± 2.92%; activity at 20 µM (CYP2A13 [4]; [13]): 19.4 ± 1.39%; activity at 20 µM (CYP2A13 [4]; [14]): 18.4 ± 1.1%; activity at 20 µM (CYP2A13 [4]; [15]): 92.4 ± 4.03%; activity at 20 µM (CYP2A13 [4]; [16]): 23.9 ± 3.17%
5 | O=c1c(O)c(-c2ccc(O)c(O)c2)oc2cc(O)cc(O)c12 [Quercetin 4, quercetin] | Competitive^b | Competitive | 0.74 ± 0.02 | 0.8 ± 0.01 | 0.11 ± 0.01 |  |  |  |  |  |  |  | 
6 | C/C=C(/C)C(=O)O[C@H]1Cc2cc3ccc(=O)oc3cc2OC1(C)C [decursinol angelate, reference compound] |  |  |  |  |  |  |  |  |  |  |  |  | KI (inactivation) (CYP2A6 [5]; [18]): 2.42 µM
7 | C#CCN(C)[C@H](C)Cc1ccccc1 [selegiline, reference compound] |  |  |  |  |  |  |  |  |  |  |  |  | KI (inactivation) (CYP2A6 [5]; [18]): 15.6 µM
